Values after ≈ are worked out from the molar mass of the structure shown. Where two headings read alike, the source gives them in different places. A value given as a limit tells only on which side of the number the result lay.

Series [1] is described as follows: Metabolic stability in human liver microsomes (HLM). The class given is in vitro ADME. Conditions: n = 1 or average of n = 2-3. (In general: Liver microsomes are vesicles of endoplasmic reticulum, rich in cytochrome P450 enzymes.)
Description: Metabolic stability in HLM was measured as described in J Comput Aided Mol Des 2015, 29, 795.
The subject of a further series is Rat Hepatocytes (rHep). The series is described as follows: Metabolic stability in rat hepatocytes (rHep). Type of series: in vitro ADME. To be noted: n = 1 or geometric mean of n = 2-3.
The next series in a line: Caco-2 cell permeability. Conditions: human. The class given is in vitro ADME. (In general: Caco-2 monolayers are a common model of the intestinal barrier.)
The next series can be described thus: Kinetic solubility. Type of series: physicochemical. Conditions: kinetic from dmso stock.
In a further series the test system is Caco-2 cell. The series is described as follows: Caco-2 cell permeability. Conditions: bidirectional (ABBA); for Caco2 Bidirectional (ABBA) A to B Papp / Caco2 Bidirectional (ABBA) B to A Papp: n = 1 or average of n = 2-4. Type of series: in vitro ADME.
For a further series, the target named is FAP (Macaca fascicularis, UniProt A0A2K5VGH4). Kind of series: FAP plasma inhibition assay, cynomolgus plasma. Type of series: biochemical. Conditions: cynomolgus plasma diluted 1:40, 75 μM Ala-Pro-AMC; n = 1; read-out: FAP Cyno Plasma IC50. How it is done: D. FAP Plasma Inhibition Assay This assay was adapted from the method described in Example 237 for detection of FAP target engagement enzyme activity in plasma. […] Compounds were tested using 10 CR, 3 fold dilution series from 500 nM FAC. Two replicates for each assay point were run on the same plate. A fluorescence blank read was taken before substrate addition. […] Plates were incubated for 40 min at rt in the dark. […] IC50 values were determined by plotting % inhibition versus log compound concentration.

Where [2] appears, read: Caco-2, AB intrinsic, n = 1 or average of n = 2-4, read-out: Caco2 AB Intrinsic Papp.

FAP, sequence (A0A2K5VGH4 entry or part of it): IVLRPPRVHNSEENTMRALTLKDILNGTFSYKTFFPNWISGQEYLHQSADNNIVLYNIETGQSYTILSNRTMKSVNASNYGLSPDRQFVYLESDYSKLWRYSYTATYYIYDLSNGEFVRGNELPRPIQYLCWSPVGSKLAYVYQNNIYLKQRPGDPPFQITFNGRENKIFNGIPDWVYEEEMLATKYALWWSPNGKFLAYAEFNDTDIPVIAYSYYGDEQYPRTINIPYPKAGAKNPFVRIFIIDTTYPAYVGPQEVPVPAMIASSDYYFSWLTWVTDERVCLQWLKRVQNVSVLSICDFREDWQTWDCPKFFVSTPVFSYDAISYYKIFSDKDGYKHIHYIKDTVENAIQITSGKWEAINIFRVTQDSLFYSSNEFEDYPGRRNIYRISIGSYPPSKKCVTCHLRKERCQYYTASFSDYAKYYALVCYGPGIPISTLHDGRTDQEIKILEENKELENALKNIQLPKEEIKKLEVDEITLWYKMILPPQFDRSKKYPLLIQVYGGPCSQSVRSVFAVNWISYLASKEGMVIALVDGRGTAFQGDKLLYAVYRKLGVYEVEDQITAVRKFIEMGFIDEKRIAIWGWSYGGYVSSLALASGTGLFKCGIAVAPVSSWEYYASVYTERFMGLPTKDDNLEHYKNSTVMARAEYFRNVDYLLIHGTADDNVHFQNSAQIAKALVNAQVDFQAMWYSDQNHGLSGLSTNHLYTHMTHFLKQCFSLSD
Description for Kinetic solubility: Kinetic solubility was measured as described in Comput Aided Mol Des 2015, 29, 795.

For `COC1CCCN(c2ccc3nccc(C(=O)NCC(=O)N4CSC[C@H]4C#N)c3c2)C1` (mixture of isomers) [Example 41, N-(2-((R)-4-Cyanothiazolidin-3-yl)-2-oxoethyl)-6-((RS)-3-methoxypiperidin-1-yl)quinoline-4-carboxamide], the microsomal CLint in series [1] was determined as 30 µL/min/mg. Further, the “rHep CLint” value in the series on Rat Hepatocytes (rHep) worked out at 12 μL/min/1E6. Also, in “Caco-2 cell permeability” (setting [2]), the Papp A→B was found to be 16 ×10⁻⁶ cm/s.

For `CC1CC(F)(F)CCN1c1ccc2nccc(C(=O)NCC(=O)N3CSC[C@H]3C#N)c2c1` (mixture of isomers) [Example 44, N-(2-((R)-4-Cyanothiazolidin-3-yl)-2-oxoethyl)-6-((RS)-4,4-difluoro-2-methylpiperidin-1-yl)quinoline-4-carboxamide], the “rHep CLint” value with Rat Hepatocytes (rHep) worked out at 160 μL/min/1E6.

Regarding `CC1N(c2ccc3nccc(C(=O)NCC(=O)N4CSC[C@H]4C#N)c3c2)CC1(F)F` (mixture of isomers) [Example 159, N-(2-((R)-4-Cyanothiazolidin-3-yl)-2-oxoethyl)-6-((RS)-3,3-difluoro-2-methylazetidin-1-yl)quinoline-4-carboxamide], the “rHep CLint” value with Rat Hepatocytes (rHep) is recorded as 47 μL/min/1E6.

Compound `N#C[C@@H]1CSCN1C(=O)CNC(=O)c1ccnc2ccc(-c3ccnn3C3CCCCO3)cc12` (mixture of isomers) [Example 176] displayed a solubility in the series “Kinetic solubility” of 800 µM (≈ 381 µg/mL). Moreover, the “rHep CLint” value with Rat Hepatocytes (rHep) came to 15 μL/min/1E6.

In series [1], `CC1(F)CCN(c2ccc3nccc(C(=O)NCC(=O)N4CSC[C@H]4C#N)c3c2)C1` (mixture of isomers) [Example 198, N-(2-((R)-4-Cyanothiazolidin-3-yl)-2-oxoethyl)-6-((RS)-3-fluoro-3-methylpyrrolidin-1-yl)quinoline-4-carboxamide] displayed an intrinsic metabolic clearance (microsomal CLint) of 20 µL/min/mg. The “rHep CLint” value in the series with Rat Hepatocytes (rHep) stood at 22 μL/min/1E6.

In “Kinetic solubility”, `N#C[C@@H]1CSCN1C(=O)CNC(=O)c1ccnc2ccc(N3CC(O)C(F)(F)C3)cc12` (mixture of isomers) [Example 224, N-(2-((R)-4-Cyanothiazolidin-3-yl)-2-oxoethyl)-6-((RS)-3,3-difluoro-4-hydroxypyrrolidin-1-yl)quinoline-4-carboxamide] registered a solubility of 50 µM (≈ 22.4 µg/mL). Moreover, in series [1], the microsomal CLint is < 3 µL/min/mg. Moreover, in the series on Rat Hepatocytes (rHep), the “rHep CLint” value was <1 μL/min/1E6. Also, in “Caco-2 cell permeability” (setting [2]), the Papp A→B stood at 1.2 ×10⁻⁶ cm/s.

For the compound `N#C[C@@H]1CSCN1C(=O)CNC(=O)c1ccnc2ccc(N3CCOCC3C(F)(F)F)cc12` (single isomer, unassigned) [Example 84, N-(2-((R)-4-Cyanothiazolidin-3-yl)-2-oxoethyl)-6-((R*)-3-(trifluoromethyl)-morpholino)quinoline-4-carboxamide], in the series on Rat Hepatocytes (rHep), the “rHep CLint” value came to 26 μL/min/1E6.

`N#C[C@@H]1CSCN1C(=O)CNC(=O)c1ccnc2ccc(N3CCOCC3C(F)(F)F)cc12` (single isomer, unassigned) [Example 85, N-(2-((R)-4-Cyanothiazolidin-3-yl)-2-oxoethyl)-6-((R*)-3-(trifluoromethyl)-morpholino)quinoline-4-carboxamide] had a solubility in the series “Kinetic solubility” of 800 µM (≈ 384 µg/mL). Moreover, in the series on Rat Hepatocytes (rHep), the “rHep CLint” value is reported as 35 μL/min/1E6.

On to `N#C[C@@H]1CSCN1C(=O)CNC(=O)c1ccnc2ccc(N3CCCC3C3CC3)cc12` (single isomer, unassigned) [Example 199, N-(2-((R)-4-Cyanothiazolidin-3-yl)-2-oxoethyl)-6-((R*)-2-cyclopropyl-pyrrolidin-1-yl)quinoline-4-carboxamide], for which, in series [1], the microsomal CLint was > 300 µL/min/mg. In the series with Rat Hepatocytes (rHep), the “rHep CLint” value is on record as 250 μL/min/1E6.

Consider `N#C[C@@H]1CSCN1C(=O)CNC(=O)c1ccnc2ccc(N3CCCC3C3CC3)cc12` (single isomer, unassigned) [Example 200, N-(2-((R)-4-Cyanothiazolidin-3-yl)-2-oxoethyl)-6-((R*)-2-cyclopropyl-pyrrolidin-1-yl)quinoline-4-carboxamide], for which the “HLM CLint” value in series [1] was >300 µL/min/mg. Also, the “rHep CLint” value in the series on Rat Hepatocytes (rHep) is recorded as >300 μL/min/1E6.

Turning to `CC1CCN(c2ccc3nccc(C(=O)NCC(=O)N4CSC[C@H]4C#N)c3c2)C1=O` (single isomer, unassigned) [Example 202, N-(2-((R)-4-Cyanothiazolidin-3-yl)-2-oxoethyl)-6-((R*)-3-methyl-2-oxopyrrolidin-1-yl)quinoline-4-carboxamide], in the series on Rat Hepatocytes (rHep), the “rHep CLint” value is on record as <1 μL/min/1E6.

Regarding `CC1CCCN(c2ccc3nccc(C(=O)NCC(=O)N4CSC[C@H]4C#N)c3c2)C1=O` (single isomer, unassigned) [Example 203, N-(2-((R)-4-Cyanothiazolidin-3-yl)-2-oxoethyl)-6-((R*)-3-methyl-2-oxopiperidin-1-yl)quinoline-4-carboxamide], the “rHep CLint” value in the series with Rat Hepatocytes (rHep) stood at 2.9 μL/min/1E6. For the same compound, in “Caco-2 cell permeability” (Caco-2, bidirectional (ABBA), A to B, n = 1 or average of n = 2-4, read-out: Caco2 Bidirectional (ABBA) A to B Papp), the Papp A→B came out at 0.4 ×10⁻⁶ cm/s. For the same compound, the Papp B→A in the series “Caco-2 cell permeability” (Caco-2, bidirectional (ABBA), B to A, n = 1 or average of n = 2-4, read-out: Caco2 Bidirectional (ABBA) B to A Papp) stood at 8 ×10⁻⁶ cm/s. For the same compound, the efflux ratio in the series “Caco-2 cell permeability” (Caco-2, bidirectional (ABBA), read-out: Caco2 Bidirectional (ABBA) Efflux Ratio) came to 20.

For the compound `CC1CCCN(c2ccc3nccc(C(=O)NCC(=O)N4CSC[C@H]4C#N)c3c2)C1=O` (single isomer, unassigned) [Example 204, N-(2-((R)-4-Cyanothiazolidin-3-yl)-2-oxoethyl)-6-((R*)-3-methyl-2-oxopiperidin-1-yl)quinoline-4-carboxamide], the intrinsic metabolic clearance (microsomal CLint) in series [1] is 8 µL/min/mg. For the same compound, in the series on Rat Hepatocytes (rHep), the “rHep CLint” value is recorded as 1.8 μL/min/1E6.

Compound `N#C[C@@H]1CSCN1C(=O)CNC(=O)c1ccnc2ccc(N3C[C@@H](F)[C@H](F)C3)cc12` (single isomer, unassigned) [Example 214] displayed a solubility in the series “Kinetic solubility” of 230 µM (≈ 99.2 µg/mL). Further, the microsomal CLint in series [1] was 27 µL/min/mg.

In turn, `N#C[C@@H]1CSCN1C(=O)CNC(=O)c1ccnc2ccc(N3CC4(CCC4)C3)cc12` [Example 17, (R)—N-(2-(4-Cyanothiazolidin-3-yl)-2-oxoethyl)-6-(2-azaspiro[3.3]heptan-2-yl)quinoline-4-carboxamide] registered a microsomal CLint in series [1] of 48 µL/min/mg.

For `CC1(C)COC12CN(c1ccc3nccc(C(=O)NCC(=O)N4CSC[C@H]4C#N)c3c1)C2` [Example 18, (R)—N-(2-(4-Cyanothiazolidin-3-yl)-2-oxoethyl)-6-(3,3-dimethyl-1-oxa-6-azaspiro[3.3]heptan-6-yl)quinoline-4-carboxamide], in the series on Caco-2 cell, the “Caco2 Bidirectional (ABBA) Efflux Ratio” value stood at 34, the “Caco2 Bidirectional (ABBA) A to B Papp” value is 0.90 1E−6 · cm/s and the “Caco2 Bidirectional (ABBA) B to A Papp” value is 31 1E−6 · cm/s. The Papp A→B in the series “Caco-2 cell permeability” (setting [2]) was found to be 13 ×10⁻⁶ cm/s.

Take `COC1(C)CCN(c2ccc3nccc(C(=O)NCC(=O)N4CSC[C@H]4C#N)c3c2)CC1` [Example 42, (R)—N-(2-(4-Cyanothiazolidin-3-yl)-2-oxoethyl)-6-(4-methoxy-4-methylpiperidin-1-yl)quinoline-4-carboxamide]: in the series “Kinetic solubility”, the concentration in solution (solubility) was 850 µM (≈ 386 µg/mL).

`N#C[C@@H]1CSCN1C(=O)CNC(=O)c1ccnc2ccc(N3CCOC4(CCOCC4)C3)cc12` [Example 99, (R)—N-(2-(4-cyanothiazolidin-3-yl)-2-oxoethyl)-6-(1,9-dioxa-4-azaspiro[5.5]undecan-4-yl)quinoline-4-carboxamide]: in the series on Caco-2 cell, the “Caco2 Bidirectional (ABBA) Efflux Ratio” value came to 46, the “Caco2 Bidirectional (ABBA) A to B Papp” value is on record as 0.46 1E−6 · cm/s and the “Caco2 Bidirectional (ABBA) B to A Papp” value is 21 1E−6 · cm/s.

`N#C[C@@H]1CSCN1C(=O)CNC(=O)c1ccnc2ccc(N3CC(CF)C3)cc12` [Example 113, (R)—N-(2-(4-Cyanothiazolidin-3-yl)-2-oxoethyl)-6-(3-(fluoromethyl)azetidin-1-yl)quinoline-4-carboxamide]: the IC50 at FAP was found to be 0.4 nM. In addition, the Papp A→B in the series “Caco-2 cell permeability” (setting [2]) came out at 20 ×10⁻⁶ cm/s.

For the compound `N#C[C@@H]1CSCN1C(=O)CNC(=O)c1ccnc2ccc(N3CC4(CC(F)C4)C3)cc12` [Example 155, (R)—N-(2-(4-Cyanothiazolidin-3-yl)-2-oxoethyl)-6-(6-fluoro-2-azaspiro[3.3]heptan-2-yl)quinoline-4-carboxamide], in the series on Caco-2 cell, the “Caco2 Bidirectional (ABBA) Efflux Ratio” value amounted to 6.5, the “Caco2 Bidirectional (ABBA) A to B Papp” value was 4.2 1E−6 · cm/s and the “Caco2 Bidirectional (ABBA) B to A Papp” value is on record as 27 1E−6 · cm/s.

`N#C[C@@H]1CSCN1C(=O)CNC(=O)c1ccnc2ccc(N3CC4(COC4)C3)cc12` [Example 166, (R)—N-(2-(4-Cyanothiazolidin-3-yl)-2-oxoethyl)-6-(2-oxa-6-azaspiro[3.3]heptan-6-yl)quinoline-4-carboxamide]: the IC50 on FAP worked out at 0.3 nM. In addition, in the series with Caco-2 cell, the “Caco2 Bidirectional (ABBA) Efflux Ratio” value was found to be 24, the “Caco2 Bidirectional (ABBA) A to B Papp” value is on record as 0.56 1E−6 · cm/s and the “Caco2 Bidirectional (ABBA) B to A Papp” value was 13 1E−6 · cm/s. Besides, the Papp A→B in “Caco-2 cell permeability” (setting [2]) came to 2 ×10⁻⁶ cm/s.

For `CC(=O)N1CC2(C1)CN(c1ccc3nccc(C(=O)NCC(=O)N4CSC[C@H]4C#N)c3c1)C2` [Example 184, (R)-6-(6-Acetyl-2,6-diazaspiro[3.3]heptan-2-yl)-N-(2-(4-cyanothiazolidin-3-yl)-2-oxoethyl)quinoline-4-carboxamide], at FAP, the IC50 stood at 0.3 nM. Also, the Papp A→B in the series “Caco-2 cell permeability” (setting [2]) came to 0.1 ×10⁻⁶ cm/s.

By microsomal CLint is commonly meant the capacity of the preparation to metabolise the compound, expressed as a volume cleared per time. As usually defined, the solubility is the concentration that dissolves in the medium under given conditions. A lower solubility goes with little dissolved substance. As a reminder, the Papp B→A is the apparent permeability from the basolateral to the apical side of a cell layer. Broadly, the IC50 is the concentration needed to halve the response being measured.
